Experimental data published in paper PMC11063903, “Engineering a human P2X2 receptor with altered ligand selectivity in yeast” (The Journal of Biological Chemistry, 2024).
Changes are numbered by the printed parent chain.

Key:
P2X2 F301W = target: T1, P2X2 F301W (Homo sapiens, UniProt Q9UBL9, F301W); assay: Fast GCaMP-mScarletI assay in yeast, P2X2 F301W; format: cell-based; conditions: for Bottom, best fit value / Hillslope, best fit value / Top, best fit value: four-parameter logistic fit of ΔF/ΔT; for Bottom, best fit value / Hillslope, best fit value / Top, best fit value / EC50: n = 3; for EC50: four-parameter logistic fit, unit inferred, unit M, read-out: EC50, best fit value
T1 construct: expressed in transfected cells; host or cells: S. cerevisiae BY4741 background
T1 sequence (Q9UBL9 1-471 F301W): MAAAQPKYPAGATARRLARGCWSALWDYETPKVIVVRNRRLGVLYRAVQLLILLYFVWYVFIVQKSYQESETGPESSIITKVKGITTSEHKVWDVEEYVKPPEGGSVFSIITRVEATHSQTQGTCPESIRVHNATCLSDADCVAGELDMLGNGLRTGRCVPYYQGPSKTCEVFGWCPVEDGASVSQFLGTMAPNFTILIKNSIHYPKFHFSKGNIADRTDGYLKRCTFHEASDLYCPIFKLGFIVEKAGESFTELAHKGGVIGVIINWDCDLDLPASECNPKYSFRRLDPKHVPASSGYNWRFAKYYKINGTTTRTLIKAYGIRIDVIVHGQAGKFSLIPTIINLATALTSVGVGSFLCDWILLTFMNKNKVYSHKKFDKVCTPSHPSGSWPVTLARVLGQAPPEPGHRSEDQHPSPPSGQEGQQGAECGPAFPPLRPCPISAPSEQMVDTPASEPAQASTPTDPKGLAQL
Experimental: Figure 4 Unnatural-ligand gating in LBD libraries.A, WT P2X2 was tested with 1 mM ATP, 500 μM AMP-PNP, and compared to ATP with the broken receptor (K81C K83C) control with 1 mM ATP in the fast GCaMP-mScarletI assay (n = 3). […] B, heat map summarizing AMP-PNP signaling (ΔF/ΔT, fast GCaMP-mScarletI assay) in the site-saturation libraries (n = 2–3). All values are normalized to WT P2X2 with saturating amounts of AMP-PNP (500 μM) and therefore represent low signal (ΔF/ΔT) compared to the ATP ligand. C, F301W, F303Y, and A304W were combinatorially combined and tested against the WT, K81C K83C broken P2X2, and the single mutant clones with both ATP (1 mM, black) and AMP-PNP (500 μM, pink). […] Values here represent signal onset and are not normalized to a positive control (n = 2–5). D–K, dose response of each P2X variant with both ATP (black) and AMP-PNP (pink) in the fast GCaMP-mScarletI assay (n = 3). Statistics were performed via one-way ANOVA with Dunnett’s multiple comparisons with to the “broken” K81C K83C negative control. ∗ represents a p value ≤0.05, ∗∗ is p ≤ 0.01, and ∗∗∗ is p ≤ 0.001.
Given that the yeast-based screen seemed to recapitulate important structural and functional features of human ion channel function, we hypothesized that it might be possible to engineer new P2X2 functionalities in yeast, including new ligand specificity. […] We screened our 133-member library in the presence of 500 μM AMP-PNP (Fig. S7). While the AMP-PNP signal was uniformly low, three substitutions (F301W, F303Y, and A304W) increased signaling 2.5 to 2.8 times relative to the negative control receptor (Figs. 4B, and S7, D, F, and G). To gain a more complete view of the properties of these mutants, dose–response curves were generated with ATP and AMP-PNP (Fig. 4, D–G, and Table S2).
GCaMP assays were performed as follows. P2X2 GCaMP strains were designed with a bi-cistronic reporter, in which the GCaMP protein was followed by a 2A peptide and a mScarletI reporter ([53]). The co-translated mScarletI was designed to act as a control for plasmid loss, GCaMP breakage via nonsense mutation, and contamination. […] P2X2-GCaMP strains were cultured and induced as previously described. Samples were induced for 24 h to allow for the accumulation of the mature GCaMP protein. Cells were washed three times in 0.1 M MES/Tris buffer and resuspended with MES/Tris with supplemental calcium. Cells were loaded onto a black, clear bottom microplate and imaged on a FlexStation3 plate reader. Samples were imaged in “flex” mode. Samples were imaged for 48 s at an interval of 1.6 s. Fluorescence was measured with an excitation at 485 nm, and emission 525 nm. At the 21 s mark, 100 μl ligand solution was transferred to the cells. For strains with mScarlet, fluorescence was read with excitation 570 nm/emission 610 nm. Slopes were calculated from the last 6 points of measurement and were normalized to the positive control samples. Any replicate in which the mScarlet value was measured to be over 2 standard deviations less than the mean for that set was discarded from further analysis.
For multiple comparisons in the site-saturation screening data, One-way ANOVA with Dunnett’s multiple comparisons test was performed where every sample was compared to the “broken” negative control. Significance was plotted where ∗ represents a p value ≤0.05, ∗∗ is p ≤0.01, and ∗∗∗ is p ≤0.001. Dose–response curves were fit with nonlinear regression software using a four-parameter logistic curve. All statistics were calculated and plotted in Graphpad Prism software.

P2X2 A304W = target: T2, P2X2 A304W (Homo sapiens, UniProt Q9UBL9, A304W); assay: 15-min kinetic GCaMP-mScarletI assay in yeast, P2X2 A304W; format: cell-based; conditions: 1 mM ATP or 5 mM AMP-PNP, 15-min bath incubation, n = 3
T2 construct: expressed in transfected cells; host or cells: S. cerevisiae BY4741 background
T2 sequence (Q9UBL9 1-471 A304W): T1 sequence (Q9UBL9 1-471 F301W) with W301F, A304W
Experimental: To more fully characterize the selected and engineered P2X2 variants, kinetic assays were performed over a longer period (15 min) that provided a more complete view of receptor gating (Fig. 5, A–H).
Figure 5 Kinetic analysis of P2X variants.A–H, P2X2 variants in GCaMP-mScarletI yeast were injected with 1 mM ATP (black) or 5 mM AMP-PNP (pink) and fluorescence was monitored over a 15-min time course of bath incubation. Error bars represent standard deviation of the mean (n = 3).
The A304W mutation therefore appears to either favor the open conformation of the receptor and/or to have slow rates of pore closure.

| SMILES | Bottom, best fit value (P2X2 F301W) | Hillslope, best fit value (P2X2 F301W) | Top, best fit value (P2X2 F301W) | EC50 (P2X2 F301W) | signal decay over the time course (P2X2 A304W) | activity compared to the wild-type (P2X2 F301W; AMP-PNP dose-response, Fig. 4D-G, Table S2) |
| --- | --- | --- | --- | --- | --- | --- |
| Nc1ncnc2c1ncn2[C@@H]1O[C@H](COP(=O)(O)OP(=O)(O)OP(=O)(O)O)[C@@H](O)[C@H]1O [ATP] | -0.0044 | 0.94 | 37.70 | 5.04 µM | no sign of decay |  |
| Nc1ncnc2c1ncn2[C@@H]1O[C@H](COP(=O)(O)OP(=O)(O)NP(=O)(O)O)[C@@H](O)[C@H]1O [AMP-PNP] | 0.4523 | 2.135 | 5.973 | 214 µM | a small amount of signal decay | 5.28 fold |
